# Test results from PubChem BioAssay AID328 (DTP/NCI, 2004).
# Where “and” joins values, the source holds several entries; their conditions need not be identical. Equal entries are not always repeated. Inconclusive results and toxic doses are left out.
# System: BDF1 mice, P388 leukemia ip, median survival T/C
# Experiment: NCI In Vivo Anticancer Drug Screen. Data for tumor model P388 Leukemia (intraperitoneal) in B6D2F1 (BDF1) mice
# Details: endpoint: median survival time, higher = longer survival
# Summary of the method: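 Compound-treated tumour-bearing mice were compared with vehicle-treated controls. Survival was recorded, and the value is the treated-group measurement divided by the control-group measurement (T/C).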
# [1] = dose: 100.0 mg/kg/injection, schedule: Q01DX009 (ip), vehicle: saline
# [2] = dose: 100.0 mg/kg/injection, schedule: Q04DX003 (ip), vehicle: saline
# [3] = dose: 200.0 mg/kg/injection, schedule: Q01DX009 (ip), vehicle: saline
# [4] = dose: 200.0 mg/kg/injection, schedule: Q04DX003 (ip), vehicle: saline
# [5] = dose: 400.0 mg/kg/injection, schedule: Q04DX003 (ip), vehicle: saline
# [6] = dose: 50.0 mg/kg/injection, schedule: Q01DX009 (ip), vehicle: saline with Tween-80
# [7] = dose: 200.0 mg/kg/injection, schedule: Q01DX009 (ip), vehicle: saline with Tween-80
# [8] = dose: 100.0 mg/kg/injection, schedule: Q01DX009 (ip), vehicle: saline with Tween-80
structure (smiles),measurement,setting,value
CC#CCOCC(O)CCl (stereo unspecified),T/C,"dose: 50.0 mg/kg/injection, schedule: Q04DX003 (ip), vehicle: saline",115 % of control
same,T/C,[1],108 % of control
same,T/C,[2],95 % of control
same,T/C,[3],116 % of control
same,T/C,[4],90 % of control
same,T/C,[5],112 % of control
CCCCCn1c(Cl)c(/C=N\Nc2ccc([N+](=O)[O-])cc2[N+](=O)[O-])c2ccccc21,T/C,"dose: 100.0 mg/kg/injection, schedule: Q04DX002 (ip), vehicle: Klucel (hydroxypropylcellulose) (HPC)",88 % of control
same,T/C,"dose: 200.0 mg/kg/injection, schedule: Q04DX002 (ip), vehicle: Klucel (hydroxypropylcellulose) (HPC)",89 % of control
same,T/C,"dose: 400.0 mg/kg/injection, schedule: Q04DX002 (ip), vehicle: Klucel (hydroxypropylcellulose) (HPC)",90 % of control
CCSC(C)C,T/C,[2],100 % of control
same,T/C,[4],104 % of control
same,T/C,[5],95 % of control
CC(=O)c1c(C)cc(C(C)(C)C)cc1C,T/C,[1],109 % of control
same,T/C,[3],100 % of control
same,T/C,"dose: 400.0 mg/kg/injection, schedule: Q01DX009 (ip), vehicle: saline",109 % of control
Cn1c2c(c3ccccc3c1=O)C(=O)c1ccccc1-2,T/C,[6],101 % of control
same,T/C,[7],90 % of control
CCCCn1cnc2c(=S)nc[nH]c21,T/C,"dose: 15.0 mg/kg/injection, schedule: Q01DX010 (ip), vehicle: water",100 % of control
same,T/C,"dose: 16.0 mg/kg/injection, schedule: Q01DX010 (ip), vehicle: saline",100 % of control
same,T/C,"dose: 30.0 mg/kg/injection, schedule: Q01DX010 (ip), vehicle: water",90 % of control
same,T/C,"dose: 32.0 mg/kg/injection, schedule: Q01DX010 (ip), vehicle: saline",90 % of control and 95 % of control
same,T/C,"dose: 64.0 mg/kg/injection, schedule: Q01DX010 (ip), vehicle: saline",104 % of control and 113 % of control
same,T/C,"dose: 128.0 mg/kg/injection, schedule: Q01DX010 (ip), vehicle: saline",95 % of control and 104 % of control
CCC[CH2][Hg][O]C(C)=O,T/C,"dose: 3.13 mg/kg/injection, schedule: Q01DX009 (ip), vehicle: saline with Tween-80",115 % of control
same,T/C,"dose: 3.13 mg/kg/injection, schedule: Q04DX003 (ip), vehicle: saline sonified",110 % of control
same,T/C,"dose: 4.16 mg/kg/injection, schedule: Q01DX009 (ip), vehicle: saline",114 % of control
same,T/C,"dose: 6.25 mg/kg/injection, schedule: Q01DX009 (ip), vehicle: saline",114 % of control
same,T/C,"dose: 6.25 mg/kg/injection, schedule: Q04DX003 (ip), vehicle: saline sonified",120 % of control
same,T/C,"dose: 8.25 mg/kg/injection, schedule: Q04DX003 (ip), vehicle: saline sonified",109 % of control
same,T/C,"dose: 12.5 mg/kg/injection, schedule: Q01DX009 (ip), vehicle: saline with Tween-80",100 % of control
same,T/C,"dose: 12.5 mg/kg/injection, schedule: Q04DX003 (ip), vehicle: saline sonified",118 % of control
O=c1[nH]cc(N(CCCl)CCCl)c(=O)[nH]1,T/C,"dose: 0.38 mg/kg/injection, schedule: Q01DX010 (ip), vehicle: saline",218 % of control
same,T/C,"dose: 0.75 mg/kg/injection, schedule: Q01DX010 (ip), vehicle: saline",300 % of control
same,T/C,"dose: 1.5 mg/kg/injection, schedule: Q01DX010 (ip), vehicle: saline",204 % of control
CC(/C=N/NC(=[N-])N)=N\N=C(/[NH-])N.[Ni+2],T/C,"dose: 6.25 mg/kg/injection, schedule: Q01DX009 (ip), vehicle: Klucel (hydroxypropylcellulose) (HPC)",97 % of control
same,T/C,"dose: 12.5 mg/kg/injection, schedule: Q01DX009 (ip), vehicle: Klucel (hydroxypropylcellulose) (HPC)",97 % of control
c1ccc2c(c1)CC1C2ON2CCc3ccccc3C12 (stereo unspecified),T/C,[8],91 % of control
same,T/C,[7],97 % of control
same,T/C,"dose: 400.0 mg/kg/injection, schedule: Q01DX009 (ip), vehicle: saline with Tween-80",109 % of control
c1coc(NC2CCCCC2)n1,T/C,"dose: 100.0 mg/kg/injection, schedule: Q01DX001 (ip), vehicle: saline with Tween-80",90 % of control
same,T/C,"dose: 200.0 mg/kg/injection, schedule: Q01DX001 (ip), vehicle: saline with Tween-80",95 % of control
same,T/C,"dose: 400.0 mg/kg/injection, schedule: Q01DX001 (ip), vehicle: saline with Tween-80",95 % of control
c1ccc2nc(-c3cc4ccccc4s3)ccc2c1,T/C,"dose: 100.0 mg/kg/injection, schedule: Q04DX003 (ip), vehicle: saline sonified",104 % of control
same,T/C,"dose: 200.0 mg/kg/injection, schedule: Q04DX003 (ip), vehicle: saline sonified",95 % of control
same,T/C,"dose: 400.0 mg/kg/injection, schedule: Q04DX003 (ip), vehicle: saline sonified",118 % of control
CN1c2ccc(Cl)cc2C(=O)NC1c1ccc([N+](=O)[O-])s1 (stereo unspecified),T/C,[6],98 % of control and 110 % of control
same,T/C,[8],104 % of control and 113 % of control
same,T/C,[7],112 % of control
OC(c1ccccc1)c1ccccc1CN1CCCNC1=S (stereo unspecified),T/C,[6],95 % of control
same,T/C,[8],103 % of control
same,T/C,[7],94 % of control
